15 molecules from patent US5834506A, “Dihydropyrones with improved antiviral activity” (Warner-Lambert Company, priority 1997, dated 1998) can be followed below.

The target in one series is T1, HIV-1 protease (Human immunodeficiency virus type 1 group M subtype B, UniProt P04585).
T1 construct: Recombinant HIV-1 protease (>96% purity); purchased Bachem Bioscience Inc. (King of Prussia, PA)
The series can be described thus: biochemical. As to conditions: read-out: Inhib of HIV-Protease IC50. An excerpt:
The testing of specific 5,6-dihydropyrones as inhibitors of the HIV aspartyl protease, based on the study of the hydrolysis of an undecapeptide enzyme substrate, and the testing of the 5,6-dihydropyrones as inhibitors of viral growth and infectivity, based on the study of infection of H9 cell lines by the HIV-1iiib strain, are also disclosed. […] The methods employed follow the procedures of Tummino, et al. (Archives of Biochemistry and Biophysics 1995, 316, 523).
(§1) The compounds of the present invention were evaluated for their in vitro inhibition of HIV-1 protease and for their antiviral efficacy in HIV infected lymphocytes.
Recombinant HIV-1 protease (>96% purity) and HIV protease substrate III (the undecapeptide H-His-Lys-Ala-Arg-Val-Leu-Nph-Glu-Ala-Nle-Ser-NH2,>97% purity) were purchased from Bachem Bioscience Inc. (King of Prussia, PA).
The methods employed follow the procedures of Tummino, et al. (Archives of Biochemistry and Biophysics 1995, 316, 523). […] (total volume, 100 μl). […] The final inhibitor concentrations used were 0 (0.1, 0.2, in some experiments), 0.5, 1, 2, 5, 10, 20, 50, and 100 μM. The solution was mixed, incubated for 5 minutes and the reaction quenched by addition of trifluoracetic acid, 2% final. The (leu-p-nitro-phe) bond of the substrate is cleaved by the enzyme and substrate and products separated by reverse-phase HPLC. Absorbance was measured at 220 nm, peak areas determined, and percentage conversion to product used to calculate percentage control (=[% conversion (+inhibitor)/% conversion (-inhibitor)]×100).

A short description of series [1]: Cellular toxicity in uninfected CEM cells (TC50). Type of series: cell-based. As to conditions: human, inhibits 50% of the viability of uninfected cells. The method, then:
(§2) Compounds were tested in lymphocyte derived CEM cells using the XTT cytopathic procedures and were performed at Southern Research Institute (Buckheit, et. al. Antiviral Res. 1993, 21, 247; see also Weislow, et al. J Nat. Cancer Inst., 1989, 81, 577). Compound concentrations were 0.32, 1, 3.2, 10, 32 and 100 uM. The EC50 represents the concentration of agent which reduces HIV cytopathic effects 50% relative to untreated control. EC95 represents the concentration of agent protecting the cells 95% relative to untreated control. Cellular toxicity of the agents are estimated from the TC50 which represents the concentration of the agent which inhibits 50% of the viability of uninfected cells.

Series [2] concerns HIV in lymphocyte derived CEM cells. Put plainly: Cellular Infection Assay, antiviral efficacy in HIV infected CEM cells (XTT cytopathic procedure). The format is cell-based. As to conditions: Human immunodeficiency virus 1, CCRF-CEM, CEM cells; for EC95: protecting the cells 95% relative to untreated control; for EC50: reduces HIV cytopathic effects 50% relative to untreated control, read-out: Antiviral Efficacy EC50. The method, then: as §1, §2
(Formazan colour is commonly taken as a measure of viable cells.)

Setting [3] is: 6.0 nM HIV-1 protease, 40 μM substrate III, 37° C., 5 minutes.

Molecules are shown by their SMILES. Read-outs that look alike come from different tables or passages of the source.

The term IC50 denotes the concentration needed to halve the response being measured. A word on the CC50: it is the concentration giving 50% cytotoxicity. Low values mean greater toxicity to the cells, high ones lower toxicity to the cells. Broadly, the EC95 is the concentration needed for an effect of 95%. Read a low EC95 as greater potency. Usually EC50 stands for the concentration that produces a half-maximal response. As for `Cc1cc(SC2=C(O)CC(CCc3ccc(O)cc3)(C(C)C)OC2=O)c(C(C)(C)C)cc1NC(=O)c1ccccc1` (stereo not shown) [Example 58], the 50% inhibitory concentration (IC50) on HIV-1 protease (setting [3]) stood at 21 nM. Moreover, the cytotoxic concentration (CC50) in series [1] was found to be 66000 nM. In series [2], the EC95 was found to be 24000 nM and the EC50 came out at 2800 nM.
The corresponding values for `Cc1cc(SC2=C(O)CC(CCc3ccc4c(c3)OCO4)(C(C)C)OC2=O)c(C(C)(C)C)cc1CO` (stereo not shown) [Example 61] are 3.1 nM, 78000 nM, 15000 nM and 1000 nM.
Turning to `Cc1cc(SC2=C(O)CC(CCc3ccc(O)cc3)(C3CCCC3)OC2=O)c(C(C)(C)C)cc1CO` (stereo not shown) [Example 62], at HIV-1 protease (setting [3]), the half-inhibitory concentration (IC50) was found to be 3.1 nM. Also, the half-maximal cytotoxic concentration (CC50) in series [1] is above 100000 nM. Further, in series [2], it took 2500 nM to reach the 95% level (EC95) and the 50% effective concentration (EC50) stood at 600 nM.
With `Cc1cc(SC2=C(O)CC(CCc3ccc(O)cc3)(C(C)C)OC2=O)c(C(C)(C)C)cc1OS(=O)(=O)N1CCN(C)CC1` (stereo not shown) [Example 67], the IC50 on HIV-1 protease was 3.1 nM. This molecule also registered a CC50 in series [1] above 100000 nM. In series [2], the concentration for an effect of 95% (EC95) was 2000 nM and the EC50 is 500 nM.
As for `Cc1cc(SC2=C(O)CC(C)(CCc3ccc(O)cc3)OC2=O)c(C(C)(C)C)cc1NC(=O)c1ccc(C#N)cc1` (stereo not shown) [Example 68], the IC50 on HIV-1 protease (setting [3]) worked out at 56 nM. The same molecule came in with a cytotoxic concentration (CC50) in series [1] above 100000 nM. Further, in series [2], the EC95 was found to be 30000 nM and the half-maximal effective concentration (EC50) was 16000 nM.
As for `Cc1cc(SC2=C(O)CC(C)(CCc3ccc(O)cc3)OC2=O)c(C(C)(C)C)cc1NS(=O)(=O)c1ccc(F)cc1` (stereo not shown) [Example 71], the 50% inhibitory concentration (IC50) on HIV-1 protease (setting [3]) turned out to be 3.7 nM. Moreover, in series [1], the CC50 was determined as 93000 nM. In series [2], the EC95 was found to be 8600 nM and the EC50 stood at 2400 nM.
In the case of `Cc1cc(SC2=C(O)CC(CCc3ccc(N)cc3C)(C3CCCCC3)OC2=O)c(C(C)(C)C)cc1CO` (stereo not shown) [Example 72], the IC50 on HIV-1 protease (setting [3]) came to 4.4 nM. This molecule yielded a CC50 in series [1] of 66000 nM. Further, in series [2], the EC95 turned out to be 8500 nM and the concentration giving a half-maximal response (EC50) turned out to be 500 nM.
On the same counts, the results for `Cc1cc(SC2=C(O)CC(CCc3ccc(O)cc3)(C(C)C)OC2=O)c(C(C)(C)C)cc1NS(=O)(=O)c1cccs1` (stereo not shown) [Example 77] are 8.7 nM, above 100000 nM, 5200 nM and 1800 nM.
The corresponding values for `Cc1cc(SC2=C(O)CC(CCc3ccc(O)cc3)(C(C)C)OC2=O)c(C(C)(C)C)cc1NC(=S)N1CCNCC1` (stereo not shown) [Example 83] are 41 nM, above 100000 nM, 92000 nM and 43000 nM.
On the same counts, the results for `Cc1cc(SC2=C(O)CC(CCc3ccc(N)cc3)(C(C)C)OC2=O)c(C(C)(C)C)cc1OS(=O)(=O)c1ccc(C#N)cc1` (stereo not shown) [Example 86] are 1.3 nM, 53000 nM, 3700 nM and 400 nM.
On to `CCNS(=O)(=O)Oc1cc(C(C)(C)C)c(SC2=C(O)CC(CCc3ccc(O)cc3)(C3CCN(C(C)=O)CC3)OC2=O)cc1C` (stereo not shown) [Example 89], for which the IC50 on HIV-1 protease (setting [3]) came out at 12 nM. The half-maximal cytotoxic concentration (CC50) in series [1] is above 100000 nM. Besides, in series [2], the 95% effect concentration (EC95) turned out to be 89000 nM and the concentration for a half-maximal effect (EC50) amounted to 32000 nM.
For `Cc1cc(SC2=C(O)CC(CCc3ccc(O)cc3)(C(C)C)OC2=O)c(C(C)(C)C)cc1N(C)C` (stereo not shown) [Example 93], the IC50 on HIV-1 protease (setting [3]) was determined as 11 nM. The same molecule displayed a cytotoxic concentration (CC50) in series [1] of 68000 nM. Also, in series [2], it took 10000 nM to reach the 95% level (EC95) and the concentration giving a half-maximal response (EC50) came out at 1900 nM.
Consider `Cc1cc(SC2=C(O)CC(CCc3ccc(O)cc3)(C3CCC3)OC2=O)c(C(C)(C)C)cc1CO` (stereo not shown) [Example 98], for which the IC50 on HIV-1 protease (setting [3]) was 2.2 nM. The CC50 in series [1] is above 100000 nM. Also, in series [2], the EC95 stood at 1900 nM and the EC50 was determined as 800 nM.
Regarding `Cc1ccc(C(C)(C)C)c(SC2=C(O)CC(CCc3ccccc3)(CCc3ccccc3)OC2=O)c1` [Ref A, 3-(2-tert-Butyl-5-methyl-phenylsulfanyl)-4-hydroxy-6,6-diphenethyl-5,6-dihydro-pyran-2-one, reference compound], the IC50 on HIV-1 protease (setting [3]) was determined as 150 nM. Besides, in series [1], the 50% cytotoxic concentration (CC50) amounted to 23000 nM. Also, in series [2], the concentration for a half-maximal effect (EC50) is above 23000 nM.
Regarding `Cc1ccc(C(C)(C)C)c(SC2=C(O)CC(CCc3ccccc3)(CCC(C)C)OC2=O)c1` (stereo not shown) [Ref C, 3-(2-tert-Butyl-5-methyl-phenylsulfanyl)-4-hydroxy-6-(3-methyl-butyl)-6-phenethyl-5,6-dihydro-pyran-2-one, reference compound], the IC50 on HIV-1 protease (setting [3]) came to 70 nM. For the same molecule, the CC50 in series [1] worked out at 28000 nM. Besides, the 50% effective concentration (EC50) in series [2] is above 28000 nM.
